Consider nine compounds from patent US12371454B2, “Cyclic peptide compound having Kras inhibitory action” (priority 2019, dated 2025).

Structures are written as SMILES. Starred links: 1 amine or outer side, 2 acyl side, 3 side chain; linkers in the order of their positions; H or OH if unused. Positions of bridges follow the written chain, without caps; N, C: chain ends. Non-standard residues stand in square brackets, D forms with d. Residues, ends and D or L forms follow the SMILES beside them. *: point of attachment. hPhe(3-Cl-4-CF3) = N[C@@H](CCc1ccc(C(F)(F)F)c(Cl)c1)C(=O)O; NMePhe(3-CN) = CN[C@@H](Cc1cccc(C#N)c1)C(=O)O; NMePhe(4-Me) = CN[C@@H](Cc1ccc(C)cc1)C(=O)O; NMedβ3hAla = C[C@H](CC(=O)[*:2])N(C)[*:1]; NMeGly(cPent) = CN[C@H](C(=O)O)C1CCCC1; Phe(2-Cl) = N[C@@H](Cc1ccccc1Cl)C(=O)O; Phe(3-I) = N[C@@H](Cc1cccc(I)c1)C(=O)O; Phe(4-F) = N[C@@H](Cc1ccc(F)cc1)C(=O)O; NMeAla(cPr) = CN[C@@H](CC1CC1)C(=O)O; NMeCha = CN[C@@H](CC1CCCCC1)C(=O)O; NMeCba = CN[C@@H](CC1CCC1)C(=O)O; NMeChg = CN[C@H](C(=O)O)C1CCCCC1; NMeI = CC[C@H](C)[C@H](NC)C(=O)O; N(CH2CH2)2CF2 = FC1(F)CCN(*)CC1; NMeD = CN[C@@H](CC(=O)O)C(=O)O; NMeL = CN[C@@H](CC(C)C)C(=O)O; NMeV = CN[C@H](C(=O)O)C(C)C; d(β3hA) = C[C@@H](N)CC(=O)O; Azetidin(1-yl) = C1CN(*)C1; NMeA = CN[C@@H](C)C(=O)O; NMeAib = CNC(C)(C)C(=O)O; Piperidide = C1CCN(*)CC1; Pra = C#CC[C@H](N)C(=O)O; Ac5c = NC1(C(=O)O)CCCC1; Aze = O=C(O)[C@@H]1CCN1; Sar = CNCC(=O)O

This assay deals with T1, Kras and SOS1 (biotin-tagged human Kras loaded with GDP, His-tagged human SOS1) (Homo sapiens, UniProt P01116, G12D).
T1 construct: made in house; host or cells: E. coli (stated for Kras only)
T1 sequence (P01116 1-188 isoform P01116-2 G12D): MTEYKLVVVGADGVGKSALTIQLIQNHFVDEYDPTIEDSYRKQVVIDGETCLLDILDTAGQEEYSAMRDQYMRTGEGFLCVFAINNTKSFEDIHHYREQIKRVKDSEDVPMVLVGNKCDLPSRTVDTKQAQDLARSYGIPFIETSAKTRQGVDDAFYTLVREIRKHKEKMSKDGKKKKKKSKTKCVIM
The experiment in a line: Protein-protein interaction inhibition between Kras and SOS1 (KrasGl2D-SOS PPI) using AlphaScreen. It is filed as binding. The note with it: AlphaScreen; biotin-tagged human Kras loaded with GDP, His-tagged human SOS1; read-out: KRAS G12D-SOS PPI IC50. Summed up:
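AlphaScreen format: Ni donor beads capture His-SOS1, streptavidin acceptor beads capture biotinylated Kras (E. coli-expressed, GDP-loaded post-purification). Excite 680 nm, read 520-620 nm.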
In general terms: Bead proximity is the source of the signal in Alpha formats.
Turning to `CC[C@H](C)[C@@H]1NC(=O)[C@H](CC(C)C)N(C)C(=O)C[C@@H](C(=O)N2CCCCC2)N(C)C(=O)[C@H](CC(C)C)NC(=O)C(C)(C)N(C)C(=O)[C@H](Cc2ccccc2Cl)NC(=O)[C@H](Cc2cccc(I)c2)NC(=O)CN(C)C(=O)[C@H](Cc2ccc(C)cc2)N(C)C(=O)CN(C)C(=O)CN(C)C1=O` [Compound 706] ([NMeL]I[Sar][Sar][NMePhe(4-Me)][Sar][Phe(3-I)][Phe(2-Cl)][NMeAib]L[NMeD]-Piperidide; lactam N-11), the IC50 (usually the midpoint of a concentration-inhibition curve) worked out at 0.066 µM. To `CC[C@H](C)[C@@H]1NC(=O)[C@H](CC(C)C)N(C)C(=O)C[C@@H](C)NC(=O)[C@H](CC2CC2)N(C)C(=O)C2(CCCC2)NC(=O)[C@@H]2CCCN2C(=O)[C@H](CCc2ccc(C(F)(F)F)c(Cl)c2)NC(=O)CN(C)C(=O)[C@H](CC2CCCCC2)N(C)C(=O)CN(C)C(=O)CN(C)C1=O` [Compound 707] (cyclo([Ac5c][NMeAla(cPr)][d(β3hA)][NMeL]I[Sar][Sar][NMeCha][Sar][hPhe(3-Cl-4-CF3)]P)) belongs 0.014 µM. Under `CC[C@H](C)[C@@H]1NC(=O)[C@H](CC(C)C)N(C)C(=O)C[C@@H](C(=O)N2CCCCC2)N(C)C(=O)[C@H](C(C)C)N(C)C(=O)C2(CCCC2)NC(=O)[C@@H]2CCCN2C(=O)[C@H](CCc2ccc(C(F)(F)F)c(Cl)c2)NC(=O)CN(C)C(=O)[C@H](Cc2cccc(C#N)c2)N(C)C(=O)CN(C)C(=O)CN(C)C1=O` [Compound 710] ([NMeL]I[Sar][Sar][NMePhe(3-CN)][Sar][hPhe(3-Cl-4-CF3)]P[Ac5c][NMeV][NMeD]-Piperidide; lactam N-11) stands 0.0044 µM; under `CC[C@H](C)[C@@H]1NC(=O)[C@H](CC(C)C)N(C)C(=O)C[C@@H](C(=O)N2CCCCC2)N(C)C(=O)[C@H](CC(C)C)NC(=O)C(C)(C)N(C)C(=O)[C@H](Cc2ccc(F)cc2)NC(=O)[C@H](Cc2cccc(I)c2)NC(=O)CN(C)C(=O)[C@H](CC2CCCCC2)N(C)C(=O)CN(C)C(=O)CN(C)C1=O` [Compound 711] ([NMeL]I[Sar][Sar][NMeCha][Sar][Phe(3-I)][Phe(4-F)][NMeAib]L[NMeD]-Piperidide; lactam N-11), 0.035 µM. Under `CC[C@H](C)[C@@H]1NC(=O)[C@H](CC(C)C)N(C)C(=O)C[C@@H](C(=O)N(C)C)N(C)C(=O)[C@H]([C@@H](C)CC)N(C)C(=O)[C@H](C)NC(=O)[C@H](C)N(C)C(=O)[C@H](CCc2ccc(C(F)(F)F)c(Cl)c2)NC(=O)CN(C)C(=O)[C@H](Cc2ccc(C)cc2)N(C)C(=O)[C@@H]2CCN2C(=O)[C@H](C)N(C)C1=O` [Compound 715] ([NMeL]I[NMeA][Aze][NMePhe(4-Me)][Sar][hPhe(3-Cl-4-CF3)][NMeA]A[NMeI][NMeD]-NMe2; lactam N-11) stands 0.0061 µM; under `C#CC[C@@H]1NC(=O)[C@H](CC(C)C)N(C)C(=O)C[C@@H](C(=O)N2CCCCC2)N(C)C(=O)[C@H](C2CCCCC2)N(C)C(=O)C2(CCCC2)NC(=O)[C@@H]2CCCN2C(=O)[C@H](CCc2ccc(C(F)(F)F)c(Cl)c2)NC(=O)CN(C)C(=O)[C@H](CC2CCCCC2)N(C)C(=O)CN(C)C(=O)CN(C)C1=O` [Compound 716] ([NMeL][Pra][Sar][Sar][NMeCha][Sar][hPhe(3-Cl-4-CF3)]P[Ac5c][NMeChg][NMeD]-Piperidide; lactam N-11), 0.0011 µM. As to `CC[C@H](C)[C@@H]1NC(=O)[C@H](CC(C)C)N(C)C(=O)C[C@@H](C(=O)N2CCC2)N(C)C(=O)[C@H](C2CCCC2)N(C)C(=O)C2(CCCC2)NC(=O)[C@H](CC(=O)N2CCC(F)(F)CC2)N(C)C(=O)[C@H](CCc2ccc(C(F)(F)F)c(Cl)c2)NC(=O)CN(C)C(=O)[C@H](CC2CCCCC2)N(C)C(=O)[C@@H]2CCN2C(=O)[C@H](C)N(C)C1=O` [Compound 719] ([NMeL]I[NMeA][Aze][NMeCha][Sar][hPhe(3-Cl-4-CF3)][NMeD](N(CH2CH2)2CF2)[Ac5c][NMeGly(cPent)][NMeD]-{Azetidin(1-yl)}; lactam N-11), the IC50 amounted to 0.0059 µM.

For `CC[C@H](C)[C@@H]1NC(=O)[C@H](CC(C)C)N(C)C(=O)C[C@@H](C(=O)N2CCCCC2)N(C)C(=O)[C@H](C2CCCCC2)N(C)C(=O)C2(CCCC2)NC(=O)[C@@H]2CCCN2C(=O)[C@H](CCc2ccc(C(F)(F)F)c(Cl)c2)NC(=O)[C@H](C)N(C)C(=O)[C@H](CC2CCCCC2)N(C)C(=O)CN(C)C(=O)CN(C)C1=O` [Compound 722] ([NMeL]I[Sar][Sar][NMeCha][NMeA][hPhe(3-Cl-4-CF3)]P[Ac5c][NMeChg][NMeD]-Piperidide; lactam N-11), the IC50 stood at 0.42 µM. Turning to `CC[C@H](C)[C@@H]1NC(=O)[C@H](CC(C)C)N(C)C(=O)C[C@@H](C)N(C)C(=O)[C@H](CC2CCC2)N(C)C(=O)C2(CCCC2)NC(=O)[C@@H]2CCCN2C(=O)[C@H](CCc2ccc(C(F)(F)F)c(Cl)c2)NC(=O)CN(C)C(=O)[C@H](CC2CCCCC2)N(C)C(=O)CN(C)C(=O)CN(C)C1=O` [Compound 723] (cyclo([Ac5c][NMeCba][NMedβ3hAla][NMeL]I[Sar][Sar][NMeCha][Sar][hPhe(3-Cl-4-CF3)]P)), the IC50 is 0.017 µM.
